Patent US20210346401A1, “REGULATOR OF TGR5 SIGNALING AS IMMUNOMODULATORY AGENT” (YICHANG HUMANWELL PHARMACEUTICAL CO., LTD, priority 2018, published 2021)

Experiments:
[1] = test system: THP1 cells; assay: Effects of kinase inhibitors on virus-induced expression of BA metabolism genes and IFNB1 (qPCR); format: cell-based, human; details: inhibitor treatment, then HSV-1 or SeV for 4 hours
[2] = test system: Raw264.7 cells; assay: Induction of type I IFNs and other antiviral genes by BAs (qPCR); format: cell-based; details: indicated concentrations of BAs
Experimental: D. Induction of type I IFNs and other antiviral genes by BAs. Raw264.7 cells were treated by the indicated concentrations of the indicated BAs, followed by qPCR analysis of the expression of the indicated genes. L. Induction of type I IFNs and other antiviral genes by BAs. Raw264.7 cells were treated with LCA (200 μM) or CDCA (200 μM) for the indicated times, followed by qPCR analysis of the expression of the indicated genes.

[3] = test system: VSV-GFP; format: cell-based
[4] = test system: TGR5; details: Tgr5+/+ macrophages (BMDMs); infected half an hour, then treatment for 6 hours
[5] = test system: monocytes; details: monocytes in vitro; cited from earlier work
[6] = test system: Raw264.7 cells; assay: Induction of phosphorylation of TBK1 and IRF3 by BAs (immunoblotting); format: cell-based; details: indicated concentrations of CDCA and LCA
Experimental: (§1) E. Induction of phosphorylation of TBK1 and IRF3 by BAs. Raw264.7 cells were treated by the indicated concentrations of CDCA and LCA, followed by immunoblotting analysis with the indicated antibodies. Cells were lysed with RIPA buffer plus complete protease inhibitors and 20 mM NEM, and lysates were sonicated for 1 min. The lysates were centrifuged at 14000 rpm for 20 min at 4° C. The supernatants were incubated with respective antibodies at 4° C. overnight before protein G beads were added for 2 h. The beads were washed with cold PBS plus 0.5 M NaCl for three times followed by an additional wash with PBS. Proteins were separated by 8% SDS-PAGE, followed by immunoblot analysis with the indicated antibodies.

[7] = test system: SRC; assay: Induction of pY416 of SRC by INT-777 and BA treatments (immunoblotting); format: cell-based; details: HEK293 cells, treatment for 1 hours
Experimental: G. Induction of pY416 of SRC by INT-777 and BA treatments. HEK293 cells were treated with DMSO, INT-777 or the indicated BAs for 1 hours, followed by immunoblotting analysis with the indicated antibodies.
as §1, with “Cells” for “E. Induction of phosphorylation of TBK1 and IRF3 by BAs. Raw264.7 cells were treated by the indicated concentrations of CDCA and LCA, followed by immunoblotting analysis with the indicated antibodies. Cells”

Row | SMILES | HSV-1- and SeV-induced transcription of CYP7A1, CYP7B1, CYP27A1 and OATP genes [1] | transcription of downstream innate immunity genes including IFNB1, CXCL10 and ISG56 [2] | VSV-GFP replication [3] | HSV-1- and SeV-induced transcription of Ifnb1 [4] | production of interleukin-1, interleukin-6 and tumor necrosis factor-α [5] | phosphorylation of TBK1 and IRF3 [6] | phosphorylation of SRC at Y416 [7]
1 | Cc1ccc2nc(NCCN)c3ncc(C)n3c2c1 [BMS-345541] | abolished | – | – | – | – | – | –
2 | C[C@H](CCC(=O)O)[C@H]1CC[C@H]2[C@@H]3[C@H](O)C[C@@H]4C[C@H](O)CC[C@]4(C)[C@H]3CC[C@]12C [CDCA, chenodeoxycholic acid] | – | potently induced | dramatically inhibited | potentiated | inhibits | induced phosphorylation | –
3 | CC[C@H]1[C@@H](O)[C@@H]2[C@H](C[C@H](O)[C@]3(C)[C@@H]([C@H](C)C[C@H](C)C(=O)O)CC[C@@H]23)[C@@]2(C)CC[C@@H](O)C[C@@H]12 [INT-777] | – | – | – | potentiated | – | – | induced phosphorylation
